Measurements: ChEMBL document CHEMBL5120841, “Discovery of novel pleuromutilin derivatives as potent antibacterial agents” (2022)
In brackets after ≈: the same amount, converted by molar mass. Activity calls are given as the source filed them. The calls are words filed in the database; no cut-off is given here.

Legend:
Staphylococcus aureus [1] = test: Antibacterial activity against methicillin-resistant Staphylococcus aureus BNCC 337371 infected in Kunming mouse lung assessed as reduction on neutrophil infiltration at 15 mg/kg,ip measured after 7 days by hematoxylin and eosin staining based light microscopic analysis; format: functional, organism-based; conditions: time 7.0 day
Enterococcus faecalis = test: Antibacterial activity against Enterococcus faecalis assessed as bacterial growth inhibition incubated for 18 to 24 hrs by microtiter dilution method; format: functional; conditions: time 18-24 hrs
[2] = test system: Staphylococcus epidermidis; test: Antibacterial activity against methicillin-resistant Staphylococcus epidermidis ATCC 51625 assessed as bacterial growth inhibition incubated for 18 to 24 hrs by microtiter dilution method; format: functional; conditions: time 18-24 hrs
Staphylococcus aureus [3] = test: Antibacterial activity against methicillin-resistant Staphylococcus aureus BNCC 337371 infected in Kunming mouse lung assessed as reduction on bacterial growth at 40 mg/kg,ip dosed measured after 7 days by 10-fold dilution method; format: functional; conditions: time 7 day
Staphylococcus aureus [4] = test: Antibacterial activity against methicillin-resistant Staphylococcus aureus BNCC 337371 assessed as reduction on bacterial count at 6X MIC incubated for 24 hrs by time killing assay; format: functional
Escherichia coli = test: Antibacterial activity against Escherichia coli CICC 10389 assessed as bacterial growth inhibition incubated for 18 to 24 hrs by microtiter dilution method; format: functional; conditions: time 18-24 hrs
Staphylococcus aureus [5] = test: Antibacterial activity against methicillin-resistant Staphylococcus aureus BNCC 337371 infected in Kunming mouse lung assessed as reduction on lymphocyte infiltration at 40 mg/kg,ip measured after 7 days by hematoxylin and eosin staining based light microscopic analysis; format: functional, organism-based; conditions: time 7.0 day
Staphylococcus aureus [6] = test: Antibacterial activity against Staphylococcus aureus ATCC 25923 assessed as reduction on bacterial count at 6X MIC incubated for 24 hrs by time killing assay; format: functional
Staphylococcus aureus [7] = test: Antibacterial activity against methicillin-resistant Staphylococcus aureus BNCC 337371 infected in Kunming mouse assessed as reduction on bacterial growth by measuring survival rate at ip dosed measured after 7 days by Bliss method; format: functional; conditions: BNCC 337371, 168 h, time 7 day
Staphylococcus aureus [8] = test: Antibacterial activity against Staphylococcus aureus ATCC 25923 assessed as bacterial growth inhibition incubated for 18 to 24 hrs by microtiter dilution method; format: functional; conditions: time 18-24 hrs
Staphylococcus aureus [9] = test: Antibacterial activity against methicillin-resistant Staphylococcus aureus BNCC 337371 infected in Kunming mouse lung assessed as reduction on bacterial growth at 15 mg/kg,ip dosed measured after 7 days by 10-fold dilution method; format: functional; conditions: time 7 day
Staphylococcus aureus [10] = test: Antibacterial activity against methicillin-resistant Staphylococcus aureus BNCC 337371 infected in Kunming mouse lung assessed as reduction on neutrophil infiltration at 40 mg/kg,ip measured after 7 days by hematoxylin and eosin staining based light microscopic analysis; format: functional, organism-based; conditions: time 7.0 day
Staphylococcus aureus [11] = test: Antibacterial activity against methicillin-resistant Staphylococcus aureus BNCC 337371 infected in Kunming mouse lung assessed as reduction on alveolar diaphragm thickening at 15 mg/kg,ip measured after 7 days by hematoxylin and eosin staining based light microscopic analysis; format: functional, organism-based; conditions: time 7.0 day
Staphylococcus aureus [12] = test: Antibacterial activity against methicillin-resistant Staphylococcus aureus BNCC 337371 infected in Kunming mouse lung assessed as reduction on alveolar diaphragm thickening at 40 mg/kg,ip measured after 7 days by hematoxylin and eosin staining based light microscopic analysis; format: functional, organism-based; conditions: time 7.0 day
Staphylococcus aureus [13] = test: Antibacterial activity against methicillin-resistant Staphylococcus aureus BNCC 337371 infected in Kunming mouse kidney assessed as reduction on bacterial growth at 40 mg/kg,ip dosed measured after 7 days by 10-fold dilution method; format: functional; conditions: time 7 day
Bacillus subtilis = test: Antibacterial activity against Bacillus subtilis assessed as bacterial growth inhibition incubated for 18 to 24 hrs by microtiter dilution method; format: functional; conditions: time 18-24 hrs
Staphylococcus aureus [14] = test: Antibacterial activity against methicillin-resistant Staphylococcus aureus BNCC 337371 infected in Kunming mouse lung assessed as reduction on lymphocyte infiltration at 15 mg/kg,ip measured after 7 days by hematoxylin and eosin staining based light microscopic analysis; format: functional, organism-based; conditions: time 7.0 day
Staphylococcus aureus [15] = test: Antibacterial activity against methicillin-resistant Staphylococcus aureus BNCC 337371 infected in Kunming mouse liver assessed as reduction on bacterial growth at 40 mg/kg,ip dosed measured after 7 days by 10-fold dilution method; format: functional, organism-based; conditions: time 7.0 day
Staphylococcus aureus [16] = test: Antibacterial activity against methicillin-resistant Staphylococcus aureus BNCC 337371 assessed as bacterial growth inhibition incubated for 18 to 24 hrs by microtiter dilution method; format: functional; conditions: time 18-24 hrs

C=C[C@]1(C)C[C@@H](OC(=O)CSc2nc(C)c(C(=O)OCC)c(C)n2)[C@]2(C)[C@H](C)CC[C@]3(CCC(=O)[C@H]32)[C@@H](C)[C@@H]1O
Activity (Staphylococcus aureus [1]): Active | MIC (Enterococcus faecalis): > 16 µg/mL | MIC [2]: ≤ 0.0156 µg/mL | Activity (Staphylococcus aureus [3]): 4.95 log10CFU/ml | Activity (Staphylococcus aureus [4]): 2.44 log10CFU/ml | MIC (Escherichia coli): > 16 µg/mL | Activity (Staphylococcus aureus [5]): Active | Activity (Staphylococcus aureus [6]): 3.62 log10CFU/ml | ED50 (Staphylococcus aureus [7]): 16.1 mg/kg | MIC (Staphylococcus aureus [8]): ≤ 0.0156 µg/mL | Activity (Staphylococcus aureus [9]): 2.97 log10CFU/ml | Activity (Staphylococcus aureus [10]): Active | Activity (Staphylococcus aureus [11]): Active | Activity (Staphylococcus aureus [12]): Active | Activity (Staphylococcus aureus [13]): 3.24 log10CFU/ml | MIC (Bacillus subtilis): 4 µg/mL (≈ 6.98 µM) | Activity (Staphylococcus aureus [14]): Active | Activity (Staphylococcus aureus [15]): Active | MIC (Staphylococcus aureus [16]): ≤ 0.0156 µg/mL
